Source: patent US20240343733A1, “COMPOUNDS FOR TARGETING DEGRADATION OF IRAK4 PROTEINS” (BIOGEN MA INC., priority 2021, published 2024)

Columns and labels:
IRAK4 = assay: Pharmacodynamics (PD) in Male Cynomolgus Monkeys, IRAK4 quantitation in PBMCs by MSD; format: in vivo; conditions: male cynomolgus monkey PBMCs
Protocol: Assay 6. Pharmacodynamics (PD) in Male Cynomolgus Monkeys
For PBMC isolation, approximately 1 mL of blood sample was collected in a BD Vacutainer® EDTA Tubes (Catalog no. 36643, Becton, Dickinson and Co., Franklin Lakes, NJ, USA) with K2-EDTA and stored at room temperature (RT). The blood was diluted 1:1 with PBS at room temperature. The tube contents were mixed gently by pipetting up and down 5 times. The PBS/blood mixture was layered carefully on the top of 2 ml Ficoll® Paque Plus (Catalog no. 17-1440-03, Cytiva, Marlborough, MA, USA) in 15 mL falcon tubes, then centrifuged at RT for 30 minutes at 600 g with acceleration set at 6 and brake set at 0. The middle ‘cloudy’ interface between plasma and Ficoll® Paque Plus containing the PBMCs was transferred to a 15 mL tube and washed once with 10 mL of PBS, then centrifuged for 10 minutes at RT at 250 g. The supernatant was discarded without disturbing the cell pellet. If red blood cells were still present, 1 mL of lysis buffer was added, incubated for 2 minutes at RT, then 10 mL PBS was added to terminate lysis, and then centrifuged for 5 minutes at RT at 250 g. The supernatant was discarded without disturbing the cell pellet and stored at −80° C. until analysis.
For cell counting, the cell suspension was diluted 1:1 with Trypan Blue dye and mixed well. The cell numbers (live and dead) were counted, and cell viability calculated. The cell numbers and cell viability of each PBMC sample were recorded.
For sample preparation for MSD analysis, 2 million cells were subjected to lysis by 100 μL of RIPA lysis and extraction buffer (Catalog no 89900, ThermoScientific, Waltham, MA, USA) with phosphatase and protease inhibitors were added for 30 minutes at 4° C. To prepare RIPA lysis and extraction buffer with phosphatase and protease inhibitors, 1 tablet of cOmplete™, 1 tablet of PhosSTOP™, 100 μL each of Phosphatase Inhibitor Cocktail 2 and 3 (all catalog no. 11836153001, 4906845001, P5726 and P0044 respectively, Sigma Aldrich, St. Louis, MO, USA) were mixed with 10 mL RIPA buffer. The lysed PBMC samples were stored at −80° C. until analysis. Samples were completely thawed before being subjected to MSD analysis. The data was normalized using protein concentration and PBMC cell numbers, separately, for comparison.
For biomarker detection of IRAK4 in samples, MSD® or Meso Scale Discovery® biomarker assays technology was utilized, which is an ELISA-based method.
For the capture or coating step, 100 μL of IRAK4 Monoclonal Antibody (2H9) (Fisher, Catalog no. MA5-15883) was added to 96 well MSD multi-array 96 well plate (MSD Catalog no. L15XA-3, MSD multi-array 96 well plate). The plate was sealed and incubated overnight at 2-8° C. The plate was washed 5×300 μL/well with tris buffered saline wash buffer. 300 μL of blocking Buffer (3% BSA in 0.1% PBST) (Wuxi, Catalog no. BB-20211112-YJC) was added. The plate was sealed and incubated for 2 h±10 minutes at room temperature without shaking. The plate was washed 5×300 μL/well with tris buffered saline wash buffer. 100 μL of standard and samples were added into each well. The plate was sealed and incubated for 1 h 10 minutes at room temperature with shaking at 500 rpm. The plate was washed 5×300 μL/well with tris buffered saline wash buffer. 100 μL of detection solution containing IRAK4 antibody (Catalog no. 4363, Cell Signaling Technology, Danvers, MA, USA) was added into each well. The plate was sealed and incubated for 1 h 10 min at RT with shaking at 500 RPM. The plate was washed 5×300 μL/well with tris buffered saline wash buffer. 100 μL of sulfotag solution containing Sulfo-Tag labeled anti-rabbit antibody (Goat) (Catalog no. R32AB-1, Meso Scale Diagnostics, Rockville, MD, USA) was added into each well. The plate was sealed and incubated for 1 h+10 minutes at room temperature with shaking at 500 RPM. The plate was washed 5×300 […] with tris buffered saline wash buffer. […]

IKZF1 = target: T1, IKZF1 (Homo sapiens, UniProt Q13422); assay: IKZF1 Degradation Assay, HiBiT Method; format: cell-based; conditions: NCIH929 cells expressing HiBiT-tagged IKZF1, 6 hours, top concentration 10 μM
T1 construct: endogenously expressing IKZF1 with HiBiT fusion tag via CRISPR
In short: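 NCIH929 cells expressing HiBiT-tagged IKZF1, 15000 cells/well in RPMI with 10% FBS and 0.05 mM 2-mercaptoethanol, exposed to compound 6 h at 37 °C. Remaining IKZF1 quantified by lytic HiBiT luminescence, normalised to untreated-cell and medium-only controls.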

T1 sequence (Q96SW2 whole entry partner, the tested form may be a part): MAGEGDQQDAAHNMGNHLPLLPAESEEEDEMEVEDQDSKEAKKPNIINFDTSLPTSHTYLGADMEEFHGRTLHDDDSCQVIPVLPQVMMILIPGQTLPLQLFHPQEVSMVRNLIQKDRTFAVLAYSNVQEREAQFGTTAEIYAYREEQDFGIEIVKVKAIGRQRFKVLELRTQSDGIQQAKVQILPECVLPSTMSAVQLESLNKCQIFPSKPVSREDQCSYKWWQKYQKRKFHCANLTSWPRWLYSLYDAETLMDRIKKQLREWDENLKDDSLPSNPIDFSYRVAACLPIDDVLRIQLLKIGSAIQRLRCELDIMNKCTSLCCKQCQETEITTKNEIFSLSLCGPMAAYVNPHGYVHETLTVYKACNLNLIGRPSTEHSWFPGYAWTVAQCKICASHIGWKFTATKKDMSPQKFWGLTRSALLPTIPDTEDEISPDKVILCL
T1 sequence (Q16531 whole entry partner, the tested form may be a part): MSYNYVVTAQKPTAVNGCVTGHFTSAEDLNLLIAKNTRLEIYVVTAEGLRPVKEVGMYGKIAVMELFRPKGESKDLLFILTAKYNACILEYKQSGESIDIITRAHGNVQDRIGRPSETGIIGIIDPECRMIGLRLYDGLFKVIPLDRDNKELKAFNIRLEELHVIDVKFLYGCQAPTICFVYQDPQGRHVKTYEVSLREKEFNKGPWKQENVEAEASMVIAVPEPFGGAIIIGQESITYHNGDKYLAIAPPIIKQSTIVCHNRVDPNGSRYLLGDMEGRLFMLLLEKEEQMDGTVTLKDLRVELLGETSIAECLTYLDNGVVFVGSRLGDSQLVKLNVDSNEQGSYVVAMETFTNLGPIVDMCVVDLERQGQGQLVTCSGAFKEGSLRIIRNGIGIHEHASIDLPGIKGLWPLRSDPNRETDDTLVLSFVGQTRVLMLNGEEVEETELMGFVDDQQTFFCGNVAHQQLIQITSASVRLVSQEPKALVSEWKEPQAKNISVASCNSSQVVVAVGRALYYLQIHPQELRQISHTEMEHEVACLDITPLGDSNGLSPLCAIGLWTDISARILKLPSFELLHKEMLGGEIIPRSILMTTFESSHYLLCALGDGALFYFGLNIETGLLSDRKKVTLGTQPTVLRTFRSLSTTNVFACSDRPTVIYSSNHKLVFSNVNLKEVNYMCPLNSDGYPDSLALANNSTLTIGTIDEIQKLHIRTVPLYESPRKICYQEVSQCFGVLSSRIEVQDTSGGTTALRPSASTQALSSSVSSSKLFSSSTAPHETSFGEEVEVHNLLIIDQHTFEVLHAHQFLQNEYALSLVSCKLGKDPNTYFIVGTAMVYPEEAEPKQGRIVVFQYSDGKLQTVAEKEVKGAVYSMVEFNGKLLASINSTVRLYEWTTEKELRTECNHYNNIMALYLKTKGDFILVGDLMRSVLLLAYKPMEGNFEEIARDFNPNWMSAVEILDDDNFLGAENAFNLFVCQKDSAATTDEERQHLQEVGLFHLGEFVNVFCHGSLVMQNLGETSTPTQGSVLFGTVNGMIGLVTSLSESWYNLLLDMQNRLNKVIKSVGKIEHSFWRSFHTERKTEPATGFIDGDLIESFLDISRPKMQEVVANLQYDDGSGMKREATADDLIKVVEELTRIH
T1 sequence (Q13422 whole entry, the tested form may be a part): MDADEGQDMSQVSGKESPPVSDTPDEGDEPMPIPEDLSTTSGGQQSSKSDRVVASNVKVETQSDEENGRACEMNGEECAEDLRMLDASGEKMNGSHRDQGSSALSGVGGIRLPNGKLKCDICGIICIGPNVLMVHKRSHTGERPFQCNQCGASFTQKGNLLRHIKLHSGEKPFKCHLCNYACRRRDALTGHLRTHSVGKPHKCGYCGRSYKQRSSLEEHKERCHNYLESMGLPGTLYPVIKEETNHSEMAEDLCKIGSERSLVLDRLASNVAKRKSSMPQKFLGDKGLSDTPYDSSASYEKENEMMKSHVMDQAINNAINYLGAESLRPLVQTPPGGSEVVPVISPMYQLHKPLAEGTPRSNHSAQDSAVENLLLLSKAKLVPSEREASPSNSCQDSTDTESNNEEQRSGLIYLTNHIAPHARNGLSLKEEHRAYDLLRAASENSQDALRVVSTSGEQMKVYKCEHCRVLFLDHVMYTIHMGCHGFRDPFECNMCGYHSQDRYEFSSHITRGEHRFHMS

DC50 (IKZF1)	Compound	IRAK4 change from vehicle (IRAK4; time 2 h)	IRAK4 change from vehicle (IRAK4; time 8 h)	IRAK4 change from vehicle (IRAK4; time 24 h)	IRAK4 change from vehicle (IRAK4; time 48 h)	IRAK4 change from vehicle (IRAK4; time 72 h)	IRAK4 change from vehicle (IRAK4; time 96 h)
> 10 µM	CC(C)Oc1cc2nc([C@H]3CC[C@H](CN4CCC(c5ccc6c(c5)n(C)c(=O)n6C5CCC(=O)NC5=O)CC4)CC3)cn2cc1C(=O)Nc1cnn2cccnc12 (stereo partly shown) [Compound 48, 2-[4-[[4-[1-(2,6-dioxo-3-piperidyl)-3-methyl-2-oxo-benzimidazol-5-yl]-1-piperidyl]methyl]cyclohexyl]-7-isopropoxy-N-pyrazolo[1,5-a]pyrimidin-3-yl-imidazo[1,2-a]pyridine-6-carboxamide]	−50%	−87%	−96%	−94%	−94%	−87%
–	CC(C)Oc1cc2nc([C@H]3CC[C@H](CN4CCC(c5ccc6c(c5)n(C)c(=O)n6C5CCC(=O)NC5=O)CC4)CC3)cn2cc1C(=O)Nc1cccn([C@H]2C[C@H]2F)c1=O (stereo partly drawn) [Compound 169, 2-((1R,4S)-4-((4-(1-(2,6-dioxopiperidin-3-yl)-3-methyl-2-oxo-2,3-dihydro-1H-benzo[d]imidazol-5-yl)piperidin-1-yl)methyl)cyclohexyl)-N-(1-((1S,2R)-2-fluorocyclopropyl)-2-oxo-1,2-dihydropyridin-3-yl)-7-isopropoxyimidazo[1,2-a]pyridine-6-carboxamide]	−62%	−83%	−97%	−97%	−94%	−90%
